Measurements published in patent publication US20250171457A1, “NITROGEN-CONTAINING HETEROCYCLIC COMPOUND HAVING NRF2 ACTIVATION EFFECT” (CHUGAI SEIYAKU KABUSHIKI KAISHA, priority 2022, published 2025).
Like-named read-outs stand apart in the source and are kept apart here.

How the values were obtained:
[1] = system: Nqo1 (NAD(P)H quinone dehydrogenase 1) mRNA, Nrf2 downstream molecule; experiment: In vivo Nrf2 transcriptional activity measurement (Nqo1 mRNA in organs by qPCR); conditions: Mus musculus, C57BL/6J mice, 7 to 8 hours; for fold induction at 30 mg/kg: Oral; for fold induction at 10 mg/kg: ip, Intraperitoneal
Method: Test Example 2: In Vivo Nrf2 Transcriptional Activity Measurement
A test compound (solvent: 10 vol % dimethyl sulfoxide/50 mM glycine/32 mM sodium hydroxide/physiological saline) was administered to C57BL/6J mice (7-8 weeks old), which were euthanized by whole blood collection under isoflurane anesthesia 7 to 8 hours later, followed by the collection of various organs. mRNA was purified from the collected organs, and the mRNA expression level of Mapk1 as an internal control and the mRNA expression level of Nqo1 (NAD(P)H quinone dehydrogenase 1) as a typical Nrf2 downstream molecule were each measured by qPCR. The Nqo1 mRNA expression level was quantified by comparative CT, and an expression level ratio to a non-administration group was calculated. The administration of the test compound elevated the Nqo1 mRNA expression level in the various organs, confirming that the test compound also has a Nrf2-activating effect in vivo.

[2] = system: Nrf2 transcriptional activity (pARE-Luc reporter) in HepG2 cells; experiment: In vitro Nrf2 transcriptional activity measurement by ARE-dependent reporter assay in HepG2 cell; assay type: cell-based, human; conditions: Homo sapiens; HepG2 cells transfected with pARE-Luc, 4 hours at 37° C.; luciferase activity of Example 1-54 or Example 17-23 at 3.75 μM defined as 100%
Summary of the method: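 HepG2 cells transfected with pGL4.37 (pARE-Luc), replated onto compound and incubated 4 h at 37° C; luciferase read by Bright-Glo luminescence. Response normalized to 100% set by a reference compound at 3.75 μM; EC50 from dose-response curve.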

[3] = kidney, read-out: Nqo1 mRNA expression level ratio to non-administration group, Kidney
[4] = liver, read-out: Nqo1 mRNA expression level ratio to non-administration group, Liver
[5] = lung, read-out: Nqo1 mRNA expression level ratio to non-administration group, Lung

Row | SMILES | fold induction at 30 mg/kg [1, 3] | fold induction at 30 mg/kg [1, 4] | fold induction at 30 mg/kg [1, 5] | EC50 [2] [nM] | fold induction at 10 mg/kg [1, 3] | fold induction at 10 mg/kg [1, 4] | fold induction at 10 mg/kg [1, 5]
1 | Cn1cc(-c2cc(Cl)c(C(=O)N3COc4c(cccc4-c4ccc(C(=O)O)c(N5CCOCC5)c4)C3)c(Cl)c2)cn1 [Compound 14-1, 4-[3-[2,6-Dichloro-4-(1-methylpyrazol-4-yl)benzoyl]-2,4-dihydro-1,3-benzoxazin-8-yl]-2-morpholin-4-ylbenzoic acid] | 5.7 | 4.2 | 17 | 3.2 | – | – | –
2 | COc1ccc(-c2cc(Cl)c(C(=O)N3COc4c(cccc4-c4cc(N5C6CCC5COC6)c(C(=O)O)cc4F)C3)c(Cl)c2)cn1 [Compound 2-2, 4-[3-[2,6-Dichloro-4-(6-methoxypyridin-3-yl)benzoyl]-2,4-dihydro-1,3-benzoxazin-8-yl]-5-fluoro-2-(3-oxa-8-azabicyclo[3.2.1]octan-8-yl)benzoic acid] | – | – | – | 6.5 | 5.3 | 5.8 | 17
3 | CC1COC2(CN(c3cc(Cl)c(C(=O)N4COc5c(cccc5-c5cc(N6C7CCC6COC7)c(C(=O)O)cc5F)C4)c(Cl)c3)C2)OC1 [Compound 5-7, 4-[3-[2,6-Dichloro-4-(7-methyl-5,9-dioxa-2-azaspiro[3.5]nonan-2-yl)benzoyl]-2,4-dihydro-1,3-benzoxazin-8-yl]-5-fluoro-2-(3-oxa-8-azabicyclo[3.2.1]octan-8-yl)benzoic acid] | – | – | – | 1.7 | 4 | 5.4 | 18
4 | COCCN1CCN(c2cc(Cl)c(C(=O)N3COc4c(cccc4-c4cc(N5CCOCC5)c(C(=O)O)cc4F)C3)c(Cl)c2)CC1 [Compound 1-54, 4-[3-[2,6-Dichloro-4-[4-(2-methoxyethyl)piperazin-1-yl]benzoyl]-2,4-dihydro-1,3-benzoxazin-8-yl]-5-fluoro-2-morpholin-4-ylbenzoic acid] | 4.9 | 7.4 | 20 | 1.5 | 4.6 | 6.7 | 18
